Laboratory results reported in EP2526954A1, “Bioavailable silicon complex, method for preparing same and use thereof” (Dexsil Labs, priority 2011, dated 2012).

Legend:
[1] = ATR-FTIR spectroscopy of the effect on artificial mixed lipid bilayer membranes (phase transition); conditions: DPPC/DPPS 85/15 membranes
From the text: (§1) L'effet, sur les bicouches lipidiques qui constituent les membranes biologiques, d'un complexe suivant l'invention renfermant de l'acide orthosilicique et de la vanilline, a été étudié par spectroscopie ATR-FTIR. Des membranes artificielles formées de DPPC (1,2 dipalmitoyl-sn-glycéro-3-phosphatydilcholine) ou d'un mélange 85/15 de DPPC/DPPS (1,2 dipalmitoyl-sn-glycéro-3-phosphatydilsérine) ont été utilisées. Les membranes présentent des transitions de phase à des températures caractéristiques (Tc à 41 °C et 53°C pour le DPPC et le DPPS respectivement). […] Les résultats tendent à montrer que le complexe s'insère dans la bicouche lipidique et de ce fait diminue les interactions entre les lipides. […] Il se produit une séparation de phase et le mélange lipidique n'est plus homogène. Ceci suggère que le composé aromatique stabilisant l'acide orthosilicique a une affinité plus grande pour un des deux lipides ce qui provoque une ségrégation spatiale des composants de la membrane.

[2] = ATR-FTIR spectroscopy of the effect on artificial lipid bilayer membranes (phase transition); conditions: DPPC membranes
From the text: as §1

[3] = en solution aqueuse, en dessous d'un pH de 6,8; cited from earlier work

| Substance | effet sur le mélange lipidique [1] | effet sur la transition de phase des lipides [2] | dissociation du complexe [3] |
| --- | --- | --- | --- |
| complexe stabilisé d'acide orthosilicique et de 4-hydroxy-3-méthoxybenzaldéhyde (vanilline) [Exemple 1] | induit une démixtion des deux lipides | diminue l'énergie requise pour que les lipides participent à la transition de phase |  |
| complexe de silicium-catéchol |  |  | complètement dissocié |
